Earlier results, collected in US20040157848A1, “Methods and compositions for the treatment of herpes virus infections using cyclooxygenase-2 selective inhibitors or cyclooxygenase-2 inhibitors in combination with antiviral agents” (Pharmacia Corporation, priority 2002, published 2004).

Tests used:
[1] = test system: cytomegalovirus induced reactive oxygen species; details: cytomegalovirus infected human smooth muscle
herpes virus = details: supplementation with exogenous GSH, in vitro

Structure (SMILES) | cytomegalovirus induced reactive oxygen species [1] | inhibition of the replication of herpes virus (herpes virus)
CC(=O)Oc1ccccc1C(=O)O [aspirin] | reduces | 
N[C@@H](CCC(=O)N[C@@H](CS)C(=O)NCC(=O)O)C(=O)O [GSH, glutathione] |  | over 99%
